Experimental data taken from patent US10759816B2, “Heterocyclic compounds as RSV inhibitors” (Enanta Pharmaceuticals, Inc., priority 2016, dated 2020).

What follows are compounds tested on genotype A, "Long" strain RSV (assay: RSV-A in vitro cytoprotection assay in HEp-2 cells (ATPlite readout of cell viability)). Conditions: human respiratory syncytial virus, HEp-2, HEp-2 cells, genotype A “Long” strain RSV, cytoprotection; read-out: Human RSV-A (“Long” strain) EC50.
Format: cell-based, Human respiratory syncytial virus
Procedure, shortened: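 HEp-2 cells (8,000/well) given 2-fold compound dilutions in duplicate, then infected with RSV-A Long strain stock; viability read by ATPlite luminescence after 4 days. EC50 derived from cytoprotection; cytotoxicity measured on parallel uninfected plate.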
`Cc1cccc(F)c1NC(=O)c1cc2c(s1)-c1ccccc1N(C(=O)c1cccc(-c3cn[nH]c3-c3ccccc3)n1)CC2` [Example 212] showed an EC50 of under 400 nM.
`N#Cc1ccc(-c2cccc(C(=O)N3CCc4cc(C(=O)NC5CC5)sc4-c4ccccc43)c2)cc1` [Example 7] was tested, and the EC50 was 400 to 800 nM.
`Cc1cccc(F)c1NC(=O)c1cc2c(s1)-c1ccccc1N(C(=O)c1cccc(N(C)CC3CCCO3)n1)CC2` (centres unmarked) [Example 461] was tested, and the EC50 was under 400 nM.
For `Cc1cccc(F)c1NC(=O)c1cc2c(s1)-c1ccccc1N(C(=O)c1cccc(NC3CS(=O)(=O)c4ccccc43)n1)CC2` (centres unmarked) [Example 476], the EC50 was under 400 nM.
`Cc1cccc(F)c1NC(=O)c1cc2c(s1)-c1ccccc1N(C(=O)c1cccc(N3CCCC(C)(C)CC3)n1)CC2` [Example 375] was tested, and the EC50 was 400 to 800 nM.
In the case of `O=C(NC1CC1)c1cc2c(s1)-c1ccccc1N(C(=O)c1cccc(N3CC4CCC(C3)O4)n1)CC2` [Example 28], the EC50 is reported as under 400 nM.
`Cc1cccc(F)c1NC(=O)c1cc2c(s1)-c1ccccc1N(C(=O)c1cccc(-c3ccc4c(c3)CN(C)C4=O)n1)CC2` [Example 195] gave an EC50 of under 400 nM.
`O=C(NC1CC1)c1cc2c(s1)-c1ccccc1N(C(=O)c1cccc(N3CCN(C4COC4)CC3)n1)CC2` [Example 27] gave an EC50 of 400 to 800 nM.
For `O=C(NC1CC1)c1cc2c(s1)-c1ccccc1N(C(=O)c1csc(N3CCOCC3)n1)CC2` [Example 12], the EC50 was 400 to 800 nM.
For `Cc1cccc(F)c1NC(=O)c1cc2c(s1)-c1ccc(F)cc1N(C(=O)c1cccc(-c3c[nH]c4ncccc34)n1)CC2` [Example 173], the EC50 was under 400 nM.
For `Cc1cccc(F)c1NC(=O)c1cc2c(s1)-c1ccccc1N(C(=O)c1cccc(-c3c[nH]nc3C3CC3)n1)CC2` [Example 196], the EC50 was under 400 nM.
In the case of `COc1ccc2c(ccn2-c2cccc(C(=O)N3CCc4cc(C(=O)NC5CC5)sc4-c4ccccc43)n2)c1` [Example 113], the EC50 is reported as over 800 nM.
`Cc1cccc(F)c1NC(=O)c1cc2c(s1)-c1ccc(F)cc1N(C(=O)c1cccc(N3C[C@@H](O)C[C@@H]3C)n1)CC2` [Example 493] was tested, and the EC50 was under 400 nM.
For `COc1ccccc1CN(C)c1cccc(C(=O)N2CCc3cc(C(=O)Nc4c(C)cccc4F)sc3-c3ccccc32)n1` [Example 341], the EC50 was under 400 nM.
`Cc1cccc(F)c1NC(=O)c1cc2c(s1)-c1ccccc1N(C(=O)c1cccc(N(C)C3CCOCC3)n1)CC2` [Example 362] showed an EC50 of under 400 nM.
`Cc1cc(-c2ccc(C(=O)N3CCc4cc(C(=O)Nc5c(C)cccc5F)sc4-c4ccccc43)cc2)n(S(C)(=O)=O)n1` [Example 271] showed an EC50 of over 800 nM.
`COCC(C)(C)CNc1cccc(C(=O)N2CCc3cc(C(=O)NC4CC4)sc3-c3ccccc32)n1` [Example 321] gave an EC50 of over 800 nM.
Work on `Cc1cccc(F)c1NC(=O)c1cc2c(s1)-c1ccccc1N(C(=O)c1cccc(-c3cn(CC(N)=O)nc3C3CC3)n1)CC2` [Example 230] yielded an EC50 of over 800 nM.
`O=C(NCc1ccccn1)c1cc2c(s1)-c1ccccc1N(C(=O)c1cccc(N3CCOc4ccccc4C3)n1)CC2` [Example 306] was tested, and the EC50 was under 400 nM.
`Cc1cccc(F)c1NC(=O)c1cc2c(s1)-c1ccccc1N(C(=O)c1cccc(N3CCCN(S(=O)(=O)C4CCCCC4)CC3)n1)CC2` [Example 385] showed an EC50 of under 400 nM.
Work on `CNC(=O)c1ccc(-c2cccc(C(=O)N3CCc4cc(C(=O)NC5CC5)sc4-c4ccccc43)n2)cn1` [Example 83] yielded an EC50 of 400 to 800 nM.
With `O=C(NC1CC1)c1cc2c(s1)-c1ccccc1N(C(=O)c1cccc(-c3ccnc(N4CCOCC4)c3)n1)CC2` [Example 85] the EC50 was under 400 nM.
In the case of `COC1CCN(c2cccc(C(=O)N3CCc4cc(C(=O)NC5CC5)sc4-c4ccccc43)n2)CC1` [Example 21], the EC50 is reported as 400 to 800 nM.
`Cc1cccc(F)c1NC(=O)c1cc2c(s1)-c1ccccc1N(C(=O)c1cccc(N3CC4CC5CC(C4)CC3C5)n1)CC2` [Example 442] was tested, and the EC50 was over 800 nM.
`Cc1cccc(F)c1NC(=O)c1ccc2c(c1)CCN(C(=O)c1cccc(N3CCCOCC3)n1)c1ccccc1-2` [Example 396] was tested, and the EC50 was over 800 nM.
`O=C(NC1CC1)c1cc2c(s1)-c1ccccc1N(C(=O)c1ccc(NC(=O)N3CCOCC3c3ccccc3)cc1)CC2` (centres unmarked) [Example 15] was tested, and the EC50 was over 800 nM.
